The source of these data is US8119599B2, “Direct application of non-toxic crosslinking reagents to resist progressive spinal degeneration and deformity” (Orthopeutics, L.P., priority 2001, dated 2012).

The structures appear in SMILES notation.

Series [1] relates to intervertebral discs (nucleus pulposus, inner and outer annulus fibrosus). The series can be described thus: Hydration change / fluid flux of disc regions after soaking, creep loading and resoaking. Set-up: species or system calf (4 month old bovine). As to conditions: for Water content, Gr C2: 0.33% Genipin 2 days, then 750N creep loading 1 hour; for % increase by Genipin (flux versus control) / Genipin Flux / % increase by Genipin (fluid flow into and out of the nucleus versus control): 0.33% genipin; for Water content, Gr B2: 1 day PBS then 2 days 0.33% genipin solution; for Water content, Gr D2: 0.33% genipin 2 days, 750N creep 1 hour, PBS another day. The source says:
By measuring the change in hydration of different regions of the intervertebral disc (nucleus pulposus, inner annulus, and outer annulus fibrosus) prior to and after periods of soaking, sustained compressive loading, and resoaking, the fluid flux to and from different regions can be determined. By comparing these measurements between control discs and discs treated with crosslinking reagents known to have minimal cytotoxicity, we see the effect of crosslinking treatment on fluid flux and permeability. A total of 24 calf (4 month old bovine) intervertebral discs were used for this study. Water content of three different areas of the […] tissue were tested-the nucleus pulposus, inner annulus fibrosus and outer annulus fibrosus. Hydration change was determined by weighing the specimen using a micro-balance (sensitivity: 0.1 mg). Water content (M) was calculated as: M=(Wet Weight-Dry Weight)/Wet Weight=g H2O/g Wet Weight The drying procedure consisted of putting the specimens in the oven with a controlled temperature of 90 degree C. for 24 hours. The specimens were separated into four tests: 1. Group A: Three specimens were in this group. It served as a control group. The specimens were soaked in PBS (phosphate buffered saline) for 1 day and then the hydration analysis was performed. 2. Group B1: Four specimens were in this group. In addition to the one day PBS soaking, the specimens soaked in PBS for 2 more days as a control and then the hydration analysis was performed. Group B2: Five specimens were in this group. In addition to the one day PBS soaking, the specimens were soaked in 0.33% genipin solution for 2 days and then the hydration analysis was performed. 3. In group C, a small daytime amount of constant compressive loading (creep) was simulated. C1: Three specimens were in this group. The specimens were soaked in PBS for 3 days and then […] of compression was applied by a materials testing machine for 1 hour. The disc was compressed in a 5 degree of flexion posture produced by two rollers attached to the loading ram of the materials testing machine. The hydration analysis was performed immediately after the creep loading. C2: Three specimens were in this group. The specimens were soaked in 0.33% Genipin solution for 2 days after 1 day of PBS soaking and performed identical creep loading with […] compressive load. The hydration analysis was performed immediately after the creep loading. 4. In group D, the imbibition of water following a period of compressive loading that typically occurs in the night time as a person is in a recumbent posture was simulated. D1: The specimens were soaked in PBS solution for 3 days and then 1 hour of creep loading at 750 N was applied. After the creep loading, the specimens were placed in a container in 1 PBS for one more day followed by the hydration analysis. D2: Three specimens were included and were soaked in 0.33% genipin solution for 2 days after one day of PBS soaking. A creep load of […] for one hour was then applied. The specimens were put in PBS for another day followed by the hydration analysis.

For series [2], the system named is posterior intervertebral disc (lumbar intervertebral joints). The series is described as follows: Indentation hardness of posterior annulus before and after compression/flexion fatigue cycling. As to conditions: 0.33% Genipin soak; up to 3000 fatigue cycles. Also noted: species or system calf. The procedure:
(§1) Thirty-three lumbar intervertebral joints were obtained from ten four-month-old calf spines. The intervertebral joints were arbitrarily divided into 3 groups: untreated controls-12 specimens, Genipin treatment 1 (G1)-6 specimens, and Genipin treatment 2 (G2)-13 specimens. The G1 treatment involved 72 hours of soaking the whole specimen in PBS with a 0.033% concentration of Genipin. Similarly the G2 treatment involved 72 hours of soaking whole specimens in PBS with 0.33% concentration of Genipin. 0.33% Genipin in PBS is produced by dilution of 50 ml of 10 times. PBS (Phosphate Buffered Saline) with distilled water by a factor of 10 to give 500 ml (500 gm) of PBS and mixing in 1.65 grams of genipin to produce the 0.33% (wt %, gm/gm) solution. […] Some controls were not subjected to soaking prior to fatigue testing. Others were soaked in a saline solution for 72 hours. Water mass loss experiments were conducted to establish the equivalency of outer annulus hydration between the genipin soaked and 0.9% saline soaked controls. The selection of treatments was randomized by spine and level. The vertebral ends of the specimens were then potted in polyurethane to facilitate mechanical testing. At the prescribed points in the loading regimen, indentation testing was used to find viscoelastic properties as follows. Stress relaxation data was gathered by ramp loading the 3 mm diameter hemi-spherical indenter to 10 N and subsequently holding that displacement for 60 s, while recording the resulting decrease in stress, referred to as the stress relaxation. Indentation testing was also utilized to determine elastic-plastic properties by calculating a hardness index (resistance to indentation) from ramp loading data. Prior to recording hardness measurements, the tissue is repeatedly indented 10 times (60 s/cycle, to the displacement at an initial 10 N load). This test protocol is based on two principles. First, viscoelastic effects asymptotically decrease with repeated loading. Secondly, hardness measurements are sensitive to the loading history of the tissue. However this effect becomes negligible following 10 loading cycles. In order to minimize these effects, viscoelastic data (stress relaxation) was collected from tissue that had not previously been indented. Alternately, elastic-plastic data (hardness) was collected from tissue that had been repeatedly loaded (preconditioned). In this case, repetitive indentation was intended to reduce the undesired effects of the changing viscoelastic properties, namely lack of repeatability, on hardness measurements. […] Several statistical measures were calculated to evaluate the significance of the results. […]

In series [3] the test system is collagenous, load-supporting tissues. As to conditions: compared with other crosslinking reagents (Sung 1999b); cited from earlier work.
For series [4], the system named is posterior intervertebral disc (lumbar intervertebral joints). The series can be described thus: Indentation stress relaxation of posterior annulus before and after compression/flexion fatigue cycling. Set-up: species or system calf. The conditions noted are these: soaking calf disc tissue in 0.33% concentration of genipin. The procedure:
as §1, with “measurements. These testing procedures were derived from several preliminary experiments on the repeatability of the measurements with variations of loading history and location. Following initial indentation testing, the specimen was loaded repetitively in flexion-compression at 200 N for 3000 cycles at a rate of 0.25 Hz. The load was applied perpendicularly to the transverse plane, 40 mm anterior to the mid-point of the specimen in the transverse plane. A second set of indentation testing data is then collected following fatigue cycling. This procedure was followed for two fatigue loading cycles. During all testing, the specimens were wrapped in saline wetted gauze to maintain their moisture content.” for “measurements.”

Series [5] concerns annulus fibrosus specimens from lumbar intervertebral discs. The series can be described thus: Radial tear resistance test of annulus fibrosus specimens. Also noted: species or system bovine. As to conditions: soaked two days in 0.15M PBS plus 0.33% genipin. The source says: Ten annulus fibrosus circumferentially aligned specimens from bovine lumbar (T12-L5) intervertebral discs were divided into two groups and either soaked two days in a 0.15M PBS or a 0.15M PBS plus 0.33% genipin solution. A custom loading fixture attached to a uniaxial materials testing system was designed to hold an annulus specimen perpendicular to the travel of a metal cylinder placed in a pre-existing radial cut. The cylinder was then pulled radially (perpendicular to lamellae) towards the external layer. Time dependent force and displacement data was acquired simultaneously. Tearing resistance was quantified in two ways: peak force normalized by specimen thickness and tearing energy per area of tear. Differences between groups were analyzed using the Mann-Whitney non-parametric test.

For series [6] the following is noted: compared to other more commonly used crosslinking agents; cited from earlier work.

For `COC(=O)C1=CO[C@@H](O)[C@@H]2C(CO)=CC[C@H]12` [genipin], in series [1] (Inner AF), the “Water content, Gr C2” value is 0.7394 g H2O/g Wet Weight; the “% increase by Genipin (flux versus control)” value came out at 17.3%; the “Genipin Flux” value is reported as 0.1008; the “Water content, Gr B2” value came out at 0.7629 g H2O/g Wet Weight. Further, in series [1] (NP), the “Water content, Gr C2” value was determined as 0.817 g H2O/g Wet Weight; the “% increase by Genipin (fluid flow into and out of the nucleus versus control)” value was 64%; the “Genipin Flux” value came to 0.04983; the “Water content, Gr D2” value is 0.8524 g H2O/g Wet Weight. The “Water content, Gr B2” value in series [1] (NP) stood at 0.8314 g H2O/g Wet Weight. Moreover, in series [1] (NP, listed as Genipin), the “% increase by Genipin (fluid flow into and out of the nucleus versus control)” value was 63.7%. In series [1] (Outer AF), the “Water content, Gr C2” value was 0.6924 g H2O/g Wet Weight; the “% increase by Genipin (flux versus control)” value is given as 5.7%; the “Genipin Flux” value is 0.05294; the “Water content, Gr D2” value is reported as 0.711 g H2O/g Wet Weight. In series [1] (Outer AF), the “Water content, Gr B2” value is reported as 0.7268 g H2O/g Wet Weight. In series [2], the “persistence of hardness improvement under fatigue cycling” value is given as “unable to sustain an improvement in the elastic mechanical properties (hardness) to 3000 test cycles”. For the same compound, the “ultimate tensile strength and toughness” value in series [3] was “greater ultimate tensile strength and toughness”. In addition, the “reduction in viscoelastic degradation” value in series [4] is given as “More than a three-fold reduction”. Moreover, in series [5], the “Normalized peak force (peak force normalized by specimen thickness)” value amounted to 42.7 N/mm and the “Total energy per area of tear” value came out at 40.2 mJ/mm^2. Also, the cytotoxicity result in series [6] is “significantly less cytotoxicity”.
